Measured values from the NIST ThermoML archive (doi:10.1016/j.jct.2015.05.024).

Assay: xn = mol fraction of the nth substance listed
Settings: 100 kPa, Liquid; for mass density: Vibrating tube method; for speed of sound: Frequency=5 MHz, Pulse-echo method

OCCOCCOCCO [triethylene glycol] + O
Settings | mass density [kg/m3] | speed of sound [m/s]
313.15 K, x1 = 0.8975 | 1107.54 | –
313.15 K, x1 = 0.9203 | 1107.65 | –
313.15 K, x1 = 0.9514 | 1107.8 | –
313.15 K, x1 = 0.9692 | 1107.89 | –
313.15 K, x1 = 1 | 1108.03 | –
318.15 K, x1 = 0.000584 | – | 1538.5
318.15 K, x1 = 0.002006 | – | 1542.9
318.15 K, x1 = 0.004375 | – | 1550
318.15 K, x1 = 0.01026 | – | 1566.6
318.15 K, x1 = 0.0107 | 1001.51 | –
318.15 K, x1 = 0.01483 | – | 1578.5
318.15 K, x1 = 0.02047 | 1010.75 | –
318.15 K, x1 = 0.0207 | – | 1592.6
318.15 K, x1 = 0.02817 | – | 1608.6
318.15 K, x1 = 0.0344 | – | 1620.5
318.15 K, x1 = 0.03972 | 1026.32 | –
318.15 K, x1 = 0.04361 | – | 1635.9
318.15 K, x1 = 0.04979 | 1033.27 | –
318.15 K, x1 = 0.05146 | – | 1647.1
318.15 K, x1 = 0.05903 | – | 1656.4
318.15 K, x1 = 0.06571 | – | 1663.4
318.15 K, x1 = 0.06996 | 1045.13 | –
318.15 K, x1 = 0.07299 | – | 1670
318.15 K, x1 = 0.08294 | – | 1677.4
318.15 K, x1 = 0.09126 | – | 1682.2
318.15 K, x1 = 0.09424 | 1056.41 | –
318.15 K, x1 = 0.09661 | – | 1684.8
318.15 K, x1 = 0.1018 | – | 1686.8
318.15 K, x1 = 0.1056 | – | 1688.1
318.15 K, x1 = 0.1135 | – | 1690.2
318.15 K, x1 = 0.1255 | – | 1692.2
318.15 K, x1 = 0.1394 | – | 1692.8
318.15 K, x1 = 0.1396 | – | 1692.8
318.15 K, x1 = 0.1432 | – | 1692.7
318.15 K, x1 = 0.1481 | 1073.27 | –
318.15 K, x1 = 0.1521 | – | 1692.1
318.15 K, x1 = 0.1731 | – | 1689
318.15 K, x1 = 0.1931 | – | 1684.5
318.15 K, x1 = 0.2006 | 1082.92 | –
318.15 K, x1 = 0.2076 | – | 1680.7
318.15 K, x1 = 0.2502 | 1088.64 | –
318.15 K, x1 = 0.2511 | – | 1667.7
318.15 K, x1 = 0.2988 | 1092.38 | –
318.15 K, x1 = 0.3044 | – | 1651.8
318.15 K, x1 = 0.3492 | 1095.09 | –
318.15 K, x1 = 0.3572 | – | 1637.7
318.15 K, x1 = 0.3925 | 1096.8 | –
318.15 K, x1 = 0.4142 | – | 1624.4
318.15 K, x1 = 0.4502 | 1098.53 | –
318.15 K, x1 = 0.4877 | 1099.4 | –
318.15 K, x1 = 0.4989 | – | 1607.6
318.15 K, x1 = 0.5004 | 1099.66 | –
318.15 K, x1 = 0.5739 | 1100.92 | –
318.15 K, x1 = 0.58 | 1101 | –
318.15 K, x1 = 0.6427 | – | 1585.5
318.15 K, x1 = 0.6465 | 1101.82 | –
318.15 K, x1 = 0.651 | 1101.87 | –
318.15 K, x1 = 0.7008 | 1102.35 | –
318.15 K, x1 = 0.7471 | 1102.73 | –
318.15 K, x1 = 0.7677 | 1102.88 | –
318.15 K, x1 = 0.7971 | – | 1571.3
318.15 K, x1 = 0.82 | 1103.22 | –
318.15 K, x1 = 0.8623 | 1103.46 | –
318.15 K, x1 = 0.8792 | 1103.55 | –
318.15 K, x1 = 0.8865 | – | 1565.1
318.15 K, x1 = 0.8975 | 1103.64 | –
318.15 K, x1 = 0.9203 | 1103.76 | –
318.15 K, x1 = 0.9514 | 1103.9 | –
318.15 K, x1 = 0.9641 | – | 1559.6
318.15 K, x1 = 0.9692 | 1103.99 | –
318.15 K, x1 = 1 | 1104.13 | 1554.7
323.15 K, x1 = 0.0107 | 999.177 | –
323.15 K, x1 = 0.02047 | 1008.26 | –
323.15 K, x1 = 0.03972 | 1023.56 | –
323.15 K, x1 = 0.04979 | 1030.37 | –
323.15 K, x1 = 0.06996 | 1041.99 | –
323.15 K, x1 = 0.09424 | 1053.04 | –
323.15 K, x1 = 0.1481 | 1069.57 | –
323.15 K, x1 = 0.2006 | 1079.07 | –
323.15 K, x1 = 0.2502 | 1084.73 | –
323.15 K, x1 = 0.2988 | 1088.45 | –
323.15 K, x1 = 0.3492 | 1091.15 | –
323.15 K, x1 = 0.3925 | 1092.88 | –
323.15 K, x1 = 0.4502 | 1094.61 | –
323.15 K, x1 = 0.4877 | 1095.48 | –
323.15 K, x1 = 0.5004 | 1095.75 | –
323.15 K, x1 = 0.5739 | 1097.01 | –
323.15 K, x1 = 0.58 | 1097.09 | –
323.15 K, x1 = 0.6465 | 1097.92 | –
323.15 K, x1 = 0.651 | 1097.96 | –
323.15 K, x1 = 0.7008 | 1098.44 | –
323.15 K, x1 = 0.7471 | 1098.82 | –
323.15 K, x1 = 0.7677 | 1098.97 | –
323.15 K, x1 = 0.82 | 1099.31 | –
323.15 K, x1 = 0.8623 | 1099.56 | –
323.15 K, x1 = 0.8792 | 1099.64 | –
323.15 K, x1 = 0.8975 | 1099.74 | –
323.15 K, x1 = 0.9203 | 1099.85 | –
323.15 K, x1 = 0.9514 | 1100 | –
323.15 K, x1 = 0.9692 | 1100.08 | –
323.15 K, x1 = 1 | 1100.22 | –
328.15 K, x1 = 0.0107 | 996.693 | –
328.15 K, x1 = 0.02047 | 1005.64 | –
328.15 K, x1 = 0.03972 | 1020.67 | –
328.15 K, x1 = 0.04979 | 1027.35 | –
328.15 K, x1 = 0.06996 | 1038.74 | –
328.15 K, x1 = 0.09424 | 1049.58 | –
328.15 K, x1 = 0.1481 | 1065.82 | –
328.15 K, x1 = 0.2006 | 1075.2 | –
328.15 K, x1 = 0.2502 | 1080.82 | –
328.15 K, x1 = 0.2988 | 1084.52 | –
328.15 K, x1 = 0.3492 | 1087.21 | –
328.15 K, x1 = 0.3925 | 1088.93 | –
328.15 K, x1 = 0.4502 | 1090.66 | –
328.15 K, x1 = 0.4877 | 1091.55 | –
328.15 K, x1 = 0.5004 | 1091.81 | –
328.15 K, x1 = 0.5739 | 1093.08 | –
328.15 K, x1 = 0.58 | 1093.16 | –
328.15 K, x1 = 0.6465 | 1093.99 | –
328.15 K, x1 = 0.651 | 1094.04 | –
328.15 K, x1 = 0.7008 | 1094.53 | –
328.15 K, x1 = 0.7471 | 1094.91 | –
328.15 K, x1 = 0.7677 | 1095.06 | –
328.15 K, x1 = 0.82 | 1095.4 | –
328.15 K, x1 = 0.8623 | 1095.64 | –
328.15 K, x1 = 0.8792 | 1095.73 | –
328.15 K, x1 = 0.8975 | 1095.83 | –
328.15 K, x1 = 0.9203 | 1095.94 | –
328.15 K, x1 = 0.9514 | 1096.09 | –
328.15 K, x1 = 0.9692 | 1096.17 | –
328.15 K, x1 = 1 | 1096.3 | –
333.15 K, x1 = 0.0107 | 994.065 | –
333.15 K, x1 = 0.02047 | 1002.89 | –
333.15 K, x1 = 0.03972 | 1017.67 | –
333.15 K, x1 = 0.04979 | 1024.24 | –
333.15 K, x1 = 0.06996 | 1035.42 | –
333.15 K, x1 = 0.09424 | 1046.06 | –
333.15 K, x1 = 0.1481 | 1062.02 | –
333.15 K, x1 = 0.2006 | 1071.28 | –
333.15 K, x1 = 0.2502 | 1076.84 | –
333.15 K, x1 = 0.2988 | 1080.53 | –
333.15 K, x1 = 0.3492 | 1083.23 | –
333.15 K, x1 = 0.3925 | 1084.95 | –
333.15 K, x1 = 0.4502 | 1086.7 | –
333.15 K, x1 = 0.4877 | 1087.58 | –
333.15 K, x1 = 0.5004 | 1087.85 | –
333.15 K, x1 = 0.5739 | 1089.13 | –
333.15 K, x1 = 0.58 | 1089.21 | –
333.15 K, x1 = 0.6465 | 1090.05 | –
333.15 K, x1 = 0.651 | 1090.1 | –
333.15 K, x1 = 0.7008 | 1090.59 | –
333.15 K, x1 = 0.7471 | 1090.97 | –
333.15 K, x1 = 0.7677 | 1091.13 | –
333.15 K, x1 = 0.82 | 1091.47 | –
333.15 K, x1 = 0.8623 | 1091.71 | –
333.15 K, x1 = 0.8792 | 1091.81 | –
333.15 K, x1 = 0.8975 | 1091.9 | –
333.15 K, x1 = 0.9203 | 1092.01 | –
333.15 K, x1 = 0.9514 | 1092.16 | –
333.15 K, x1 = 0.9692 | 1092.24 | –
333.15 K, x1 = 1 | 1092.38 | –
